ChEMBL document CHEMBL1201862, “PubChem BioAssay data set” (2004)
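Assay format: 96-well plates, 48-hour exposure. Here, GI50 denotes the concentration required for 50% inhibition of growth.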 Calls of active or inactive are those of the source. No stated cut-off is given here; in the data, active = GI50 up to about 1.1 µM and inactive = higher.

How the values were obtained:
Experiment in all cases: growth of human tumour cells (NCI), 48 h
HCT-15 = test system: HCT-15
SF-295 = test system: SF-295
SNB-75 = test system: SNB-75
SK-MEL-2 = test system: SK-MEL-2
TK-10 = test system: TK-10
HCT-116 = test system: HCT-116
HCC 2998 = test system: HCC 2998
M14 = test system: M14
SK-OV-3 = test system: SK-OV-3
A498 = test system: A498
U-251 = test system: U-251
EKVX = test system: EKVX
SK-MEL-5 = test system: SK-MEL-5
COLO 205 = test system: COLO 205
HOP-92 = test system: HOP-92
SR = test system: SR

Row | Compound | GI50 (HCT-15) | GI50 (SF-295) | GI50 (SNB-75) | GI50 (SK-MEL-2) | GI50 (TK-10) | GI50 (HCT-116) | GI50 (HCC 2998) | GI50 (M14) | GI50 (SK-OV-3) | GI50 (A498) | GI50 (U-251) | GI50 (EKVX) | GI50 (SK-MEL-5) | GI50 (COLO 205) | GI50 (HOP-92) | GI50 (SR)
1 | CCOc1ccc(/N=N/c2ccc3oc(=O)c(C(=O)Nc4ccc(OC)cc4)cc3c2)cc1 | 6.12 µM | 31.2 µM (inactive) | 33.7 µM (inactive) | 18.6 µM (inactive) | 17.1 µM (inactive) | 11.3 µM (inactive) | 10.8 µM (inactive) | > 10 µM (inactive) | 41.9 µM (inactive) | 4.22 µM (inactive) | 14.1 µM (inactive) | 26.6 µM (inactive) | 15 µM (inactive) | 47.9 µM (inactive) |  | 
2 | CN(C(=O)C1CC1)C1C2CN3CCC(O2)C13 (centres undefined) | > 100 µM | > 100 µM (inactive) | > 100 µM (inactive) | > 100 µM (inactive) | > 100 µM (inactive) | > 100 µM (inactive) | > 100 µM (inactive) | > 100 µM (inactive) | > 100 µM (inactive) | > 100 µM (inactive) | > 100 µM (inactive) | > 100 µM (inactive) | > 100 µM (inactive) | > 100 µM (inactive) | > 100 µM (inactive) | 
3 | COc1nc(NC2OCC(OC(C)=O)C(OC(C)=O)C2OC(C)=O)c(/N=C\C=N\c2c(NC3OCC(OC(C)=O)C(OC(C)=O)C3OC(C)=O)nc(OC)n(C)c2=O)c(=O)n1C (centres undefined) | > 100 µM | > 100 µM (inactive) | > 100 µM (inactive) | > 100 µM (inactive) | > 100 µM (inactive) | > 100 µM (inactive) | > 100 µM (inactive) | > 100 µM (inactive) | > 100 µM (inactive) | > 100 µM (inactive) | > 100 µM (inactive) | > 100 µM (inactive) | > 100 µM (inactive) | > 100 µM (inactive) | > 100 µM (inactive) | > 100 µM (inactive)
4 | O=C(O)CSc1nnc(-c2ccccc2)[nH]1 | > 100 µM | > 100 µM (inactive) | 37.2 µM (inactive) | > 100 µM (inactive) | > 100 µM (inactive) |  | > 100 µM (inactive) | > 100 µM (inactive) | > 100 µM (inactive) | > 100 µM (inactive) | > 100 µM (inactive) | > 100 µM (inactive) | > 100 µM (inactive) | > 100 µM (inactive) |  | 
5 | O=C(/C=C/c1ccccc1O)c1cccnc1 |  | > 100 µM (inactive) | > 100 µM (inactive) | > 100 µM (inactive) | > 100 µM (inactive) | > 100 µM (inactive) | > 100 µM (inactive) | > 100 µM (inactive) | > 100 µM (inactive) | > 100 µM (inactive) | > 100 µM (inactive) | > 100 µM (inactive) | > 100 µM (inactive) |  |  | > 100 µM (inactive)
6 | C1CC2=C(C1)C1=S(S2)SC2=C1CCC2 | > 100 µM | > 100 µM (inactive) | > 100 µM (inactive) | > 100 µM (inactive) | > 100 µM (inactive) | > 100 µM (inactive) | > 100 µM (inactive) | > 100 µM (inactive) | > 100 µM (inactive) | 10.7 µM (inactive) | > 100 µM (inactive) | > 100 µM (inactive) | > 100 µM (inactive) | > 100 µM (inactive) | > 100 µM (inactive) | 
7 | O=C(O)CCC1CCc2cccc(OCC(=O)O)c2C1=O (centres undefined) | > 100 µM | > 100 µM (inactive) | > 100 µM (inactive) |  | > 100 µM (inactive) | > 100 µM (inactive) | > 100 µM (inactive) | > 100 µM (inactive) | > 100 µM (inactive) | > 100 µM (inactive) | > 100 µM (inactive) | > 100 µM (inactive) | > 100 µM (inactive) | > 100 µM (inactive) | > 100 µM (inactive) | 
8 | O=S(=O)(O)c1ccc(-c2c3nc(c(-c4ccc(S(=O)(=O)O)cc4)c4ccc([nH]4)c(-c4ccc(S(=O)(=O)O)cc4)c4nc(c(-c5ccc(S(=O)(=O)O)cc5)c5ccc2[nH]5)C=C4)C=C3)cc1 | > 100 µM | 42.7 µM (inactive) | 17.3 µM (inactive) | 27.1 µM (inactive) | > 100 µM (inactive) | > 100 µM (inactive) | > 100 µM (inactive) | 90.6 µM (inactive) | > 100 µM (inactive) | 31 µM (inactive) | > 100 µM (inactive) | > 100 µM (inactive) | > 100 µM (inactive) | > 100 µM (inactive) | 21.8 µM (inactive) | 
9 | CC(C)N(C(=O)C12C3C4C1C1C2C3C41C#N)C(C)C (centres undefined) | > 72.8 µM | > 100 µM (inactive) | > 84.7 µM (inactive) | > 100 µM (inactive) | > 100 µM (inactive) | > 100 µM (inactive) | > 100 µM (inactive) | > 100 µM (inactive) | > 100 µM (inactive) | > 100 µM (inactive) | > 100 µM (inactive) | > 100 µM (inactive) | > 100 µM (inactive) | > 100 µM (inactive) | > 100 µM (inactive) | 20.2 µM (inactive)
10 | C/C=C/C=N/N(c1nnc(-c2ccccc2)c(-c2ccccc2)n1)S(=O)(=O)c1ccc(C)cc1 | 5.14 µM | 11 µM (inactive) | 3.61 µM (inactive) | 11.4 µM (inactive) | 14.9 µM (inactive) | 8.09 µM (inactive) | 17 µM (inactive) | 4.69 µM (inactive) | 18.7 µM (inactive) | 14.3 µM (inactive) | 4.04 µM (inactive) | 17.8 µM (inactive) | 8.22 µM (inactive) | 17.1 µM (inactive) | 16.2 µM (inactive) | 3.48 µM (inactive)
11 | C1OCC2S[C@@H]3COCO[C@@H]3C2O1 (some centres undefined) | > 100 µM | > 100 µM (inactive) | > 100 µM (inactive) |  | > 100 µM (inactive) | > 100 µM (inactive) | > 100 µM (inactive) | > 100 µM (inactive) | > 100 µM (inactive) | > 100 µM (inactive) | > 100 µM (inactive) | > 100 µM (inactive) | > 100 µM (inactive) | > 100 µM (inactive) |  | > 100 µM (inactive)
12 | C=C(C)C1CC[C@]2(C(=O)O)CCC3(C)[C@H](CCC4[C@@]5(C)CC[C@H](OC6OC(CO)C(O)C6OC6OC(C)C(O)C(O)C6O)[C@@](C)(CO)C5CC[C@]43C)C12 (some centres undefined) | > 100 µM | > 100 µM (inactive) | > 100 µM (inactive) | > 100 µM (inactive) | > 100 µM (inactive) | > 100 µM (inactive) | > 100 µM (inactive) | > 100 µM (inactive) |  |  | > 100 µM (inactive) | > 100 µM (inactive) | > 100 µM (inactive) | > 100 µM (inactive) |  | > 100 µM (inactive)
13 | CCc1cccc(C)c1NC(=O)CC1Sc2ccccc2NC1=O (centres undefined) | 39.3 µM | 95.7 µM (inactive) | 10.7 µM (inactive) | 33.6 µM (inactive) | 93.1 µM (inactive) | 34.3 µM (inactive) | 22.4 µM (inactive) | 39.4 µM (inactive) | 75.7 µM (inactive) | 28.6 µM (inactive) | 31.5 µM (inactive) | 91.8 µM (inactive) | 23.4 µM (inactive) | 53.7 µM (inactive) | 32.8 µM (inactive) | 
14 | C/C(=N/O)c1sc(-c2nc(C)c(/C(C)=N\O)s2)nc1C | > 100 µM | > 100 µM (inactive) | 31.3 µM (inactive) |  |  | > 100 µM (inactive) | > 100 µM (inactive) | > 100 µM (inactive) | > 100 µM (inactive) | > 100 µM (inactive) | > 100 µM (inactive) | > 100 µM (inactive) | > 100 µM (inactive) | > 100 µM (inactive) | > 100 µM (inactive) | > 100 µM (inactive)
15 | O=C1O[C@H](C(Cl)(Cl)Cl)N2CCCC12 (some centres undefined) | > 100 µM | > 100 µM (inactive) | > 100 µM (inactive) | > 100 µM (inactive) | > 100 µM (inactive) |  |  | > 100 µM (inactive) | > 100 µM (inactive) | > 100 µM (inactive) | > 100 µM (inactive) | > 100 µM (inactive) | > 100 µM (inactive) | > 100 µM (inactive) | > 100 µM (inactive) | 
16 | CC(=O)/C=C/c1ccc(C)cc1 | > 100 µM | > 100 µM (inactive) | > 100 µM (inactive) | > 100 µM (inactive) | > 100 µM (inactive) | > 100 µM (inactive) | > 100 µM (inactive) | > 100 µM (inactive) | > 100 µM (inactive) | > 100 µM (inactive) | > 100 µM (inactive) | > 100 µM (inactive) | > 100 µM (inactive) | > 100 µM (inactive) | > 100 µM (inactive) | 
17 | COC(=O)/C(C#N)=C1\NN=NN1CCCN1CCOCC1 | > 100 µM | > 100 µM (inactive) | > 100 µM (inactive) |  | > 100 µM (inactive) | > 100 µM (inactive) | > 100 µM (inactive) | > 100 µM (inactive) | > 100 µM (inactive) | > 100 µM (inactive) | > 100 µM (inactive) | > 100 µM (inactive) | > 100 µM (inactive) | > 100 µM (inactive) | > 100 µM (inactive) | 
18 | CC(C)(C)OC(=O)Cc1ccc2c(ccn2Cc2ccccc2)c1 | 12.8 µM | 75.2 µM (inactive) | > 100 µM (inactive) | > 100 µM (inactive) | 79.6 µM (inactive) | 25.2 µM (inactive) | > 100 µM (inactive) | > 100 µM (inactive) | > 100 µM (inactive) | > 100 µM (inactive) | 19.8 µM (inactive) | 81.8 µM (inactive) | 31.4 µM (inactive) | 44.1 µM (inactive) | 79.3 µM (inactive) | 
19 | Oc1nc(S)nc2c1CCCN2 | > 100 µM | > 100 µM (inactive) | > 100 µM (inactive) | > 100 µM (inactive) | > 100 µM (inactive) | > 100 µM (inactive) |  | > 100 µM (inactive) | > 100 µM (inactive) |  | > 100 µM (inactive) | > 100 µM (inactive) | > 100 µM (inactive) | > 100 µM (inactive) | > 100 µM (inactive) | > 100 µM (inactive)
